Laboratory results published in US20110224079A1, “SPIROHETEROCYCLIC N-OXYAMIDES AS PESTICIDES” (SYNGENTA CROP PROTECTION LLC, priority 2008, published 2011).

Assays:
[1] = system: Myzus persicae (green peach aphid); test: Example B2: activity against Myzus persicae, pea seedling roots in test solution (systemic/feeding, curative); conditions: 144 h, read-out: activity (mortality)
[2] = system: Tetranychus urticae (two-spotted spider mite); test: Example B4: activity against Tetranychus urticae, sprayed bean leaf discs (feeding/residual contact, preventive); conditions: foliar, 192 h, read-out: activity (egg, larval and adult mortality)
[3] = system: Myzus persicae (green peach aphid); test: Example B1: activity against Myzus persicae, sprayed sunflower leaf discs (feeding/residual contact, preventive); conditions: foliar, 144 h, read-out: activity (mortality)
[4] = system: Myzus persicae (green peach aphid); test: Example B17: activity against Myzus persicae on sprayed pepper plants (feeding/residual contact); assay type: in vivo; conditions: 144 h, infested pepper plants sprayed, 6 days

SMILES	mortality at 400 ppm [1] [%]	mortality at 400 ppm [2] [%]	mortality at 400 ppm [3] [%]	mortality at 200 ppm [4] [%]
CCOC(=O)OC1=C(c2c(C)cc(C)cc2C)C(=O)N(OC(=O)C2CC2)C12CCN(OC)CC2 [P1.16]	> 80	> 80	–	–
CCOC(=O)OC1=C(c2c(C)cc(-c3ccc(Cl)cc3)cc2C)C(=O)N(OCOC)C12CCN(OC)CC2 [P1.20]	–	–	> 80	–
CCOC(=O)OC1=C(c2cc(Br)ccc2C)C(=O)N(OCOC)C12CCN(OC)CC2 [P1.21]	–	> 80	–	–
CCOC(=O)OC1=C(c2c(C)cc(C)cc2C)C(=O)N(OC2CCCCC2)C12CCN(OC)CC2 [P1.30]	–	–	> 80	–
CCOC(=O)OC1=C(c2cc(C)c(Cl)cc2C)C(=O)N(OCOC)C12CCN(OC)CC2 [P1.32]	–	–	–	≥ 80
CCOC(=O)OC1=C(c2cc(C)c(Cl)cc2C)C(=O)N(OCCOC)C12CCN(OC)CC2 [P1.33]	–	–	> 80	–
CCOC(=O)OC1=C(c2cc(C)c(Cl)cc2C)C(=O)N(OC)C12CCN(OC)CC2 [P1.34]	–	–	> 80	–
CCOC(=O)OC1=C(c2cc(C)c(C)cc2Cl)C(=O)N(OCCOC)C12CCN(OC)CC2 [P1.35]	> 80	–	> 80	–
CCOC(=O)OC1=C(c2cc(C)c(C)cc2C)C(=O)N(OCCOC)C12CCN(OC)CC2 [P1.36]	–	–	> 80	–
CCOC(=O)OC1=C(c2c(C)ccc(Cl)c2C)C(=O)N(OC)C12CCN(OC)CC2 [P1.37]	–	–	> 80	≥ 80
CCOC(=O)OC1=C(c2cc(C)c(C)cc2Cl)C(=O)N(OCOC)C12CCN(OC)CC2 [P1.38]	–	–	> 80	≥ 80
CCOC(=O)OC1=C(c2cc(C)c(C)cc2Cl)C(=O)N(OC)C12CCN(OC)CC2 [P1.39]	–	–	> 80	–
CCOC(=O)OC1=C(c2c(Cl)ccc(C)c2F)C(=O)N(OC)C12CCN(OC)CC2 [P1.41]	> 80	–	–	–
CCOC(=O)OC1=C(c2c(Cl)ccc(C)c2F)C(=O)N(OCOC)C12CCN(OC)CC2 [P1.42]	> 80	–	–	–
CCOC(=O)OC1=C(c2c(C)cc(C)c(C)c2C)C(=O)N(OCCOC)C12CCN(OC)CC2 [P1.46]	> 80	–	–	–
CCOC(=O)OC1=C(c2ccc(C)cc2C)C(=O)N(OCOC)C12CCN(OC)CC2 [P1.50]	> 80	–	> 80	–
CCOC(=O)OC1=C(c2cc(C)c(C)cc2Br)C(=O)N(OCOC)C12CCN(OC)CC2 [P1.52]	> 80	–	–	–
CCOC(=O)OC1=C(c2cc(C)c(C)cc2C)C(=O)N(OC)C12CCN(OC)CC2 [P1.57]	> 80	–	> 80	≥ 80
CCOC(=O)OC1=C(c2c(C)cc(Br)cc2C)C(=O)N(OC2CCCO2)C12CCN(OC)CC2 (centres unmarked) [P1.63]	> 80	–	> 80	≥ 80
CCOC(=O)OC1=C(c2cc(C)c(C)cc2Cl)C(=O)N(OC2CCCO2)C12CCN(OC)CC2 (centres unmarked) [P1.64]	> 80	–	–	–
CCOC(=O)OC1=C(c2c(C)ccc(Cl)c2C)C(=O)N(OCCOC)C12CCN(OC)CC2 [P1.65]	> 80	–	–	≥ 80
CCOC(=O)OC1=C(c2c(C)cc(C)cc2Br)C(=O)N(OC)C12CCN(OC)CC2 [P1.66]	> 80	–	> 80	–
CCOC(=O)OC1=C(c2c(C)cc(C)cc2Br)C(=O)N(OCCOC)C12CCN(OC)CC2 [P1.67]	> 80	–	> 80	–

SMILES	mortality at 400 ppm [1] [%]	mortality at 400 ppm [2] [%]	mortality at 400 ppm [3] [%]	mortality at 200 ppm [4] [%]
CCOC(=O)OC1=C(c2c(C)cc(C)cc2Br)C(=O)N(OCOC)C12CCN(OC)CC2 [P1.68]	> 80	–	> 80	–
CCOC(=O)OC1=C(c2c(C)cccc2C)C(=O)N(OCCOC)C12CCN(OC)CC2 [P1.73]	> 80	–	> 80	≥ 80
CCOC(=O)OC1=C(c2c(C)cc(C)cc2C)C(=O)N(OC2COC2)C12CCN(OC)CC2 [P1.79]	> 80	–	–	≥ 80
CCOC(=O)OC1=C(c2c(C)cc(C)cc2C)C(=O)N(OCC2CCSCC2)C12CCN(OC)CC2 [P1.80]	–	> 80	–	–
CCOC(=O)OC1=C(c2cc(Br)c(C)cc2C)C(=O)N(OCOC)C12CCN(OC)CC2 [P1.87]	–	> 80	–	–
CCOC(=O)OC1=C(c2c(C)cc(Br)cc2C)C(=O)N(OCCOC)C12CCN(OC)CC2 [P1.89]	> 80	–	> 80	≥ 80
CCOC(=O)OC1=C(c2c(F)ccc(C)c2Cl)C(=O)N(OC2CCCO2)C12CCN(OC)CC2 (centres unmarked) [P1.102]	> 80	–	–	–
CCOC(=O)OC1=C(c2cc(C)c(Cl)cc2C)C(=O)N(OC2CCCO2)C12CCN(OC)CC2 (centres unmarked) [P1.103]	–	–	> 80	–
CCOC(=O)OC1=C(c2c(C)cc(C)cc2C)C(=O)N(OCC2CCCCC2)C12CCN(OC)CC2 [P1.105]	–	> 80	–	–
CCOC(=O)OC1=C(c2c(C)cc(C)cc2C)C(=O)N(OC2CCOC2)C12CCN(OC)CC2 (centres unmarked) [P1.108]	> 80	–	> 80	–
CON1CCC2(CC1)C(O)=C(c1cc(C)c(Cl)cc1C)C(=O)N2OC [P2,31]	–	–	–	≥ 80
CON1CCC2(CC1)C(O)=C(c1c(C)cc(C)cc1C)C(=O)N2OC1CCCCC1 [P2.26, 1-Cyclohexyloxy-4-hydroxy-8-methoxy-3-(2,4,6-trimethyl-phenyl)-1,8-diaza-spiro[4.5]dec-3-en-2-one]	–	> 80	–	–
COCON1C(=O)C(c2cc(C)c(Cl)cc2C)=C(O)C12CCN(OC)CC2 [P2.27]	> 80	–	–	–
COCCCON1C(=O)C(c2c(C)cc(C)cc2C)=C(O)C12CCN(OC)CC2 [P2.28]	> 80	–	> 80	–
COCCON1C(=O)C(c2cc(C)c(Cl)cc2C)=C(O)C12CCN(OC)CC2 [P2.29]	–	–	–	≥ 80
COCCON1C(=O)C(c2cc(C)c(C)cc2Cl)=C(O)C12CCN(OC)CC2 [P2.32]	> 80	–	–	–
CON1CCC2(CC1)C(O)=C(c1ccc(C)cc1C)C(=O)N2OC1CCCO1 (centres unmarked) [P2.33]	> 80	–	> 80	≥ 80
CON1CCC2(CC1)C(O)=C(c1cc(C)c(C)cc1C)C(=O)N2OC [P2.36]	–	–	> 80	≥ 80
COCCON1C(=O)C(c2cc(C)c(C)cc2C)=C(O)C12CCN(OC)CC2 [P2.37]	–	–	> 80	–
COCON1C(=O)C(c2cc(C)c(C)cc2C)=C(O)C12CCN(OC)CC2 [P2.38]	–	–	> 80	≥ 80
CON1CCC2(CC1)C(O)=C(c1c(C)ccc(Cl)c1C)C(=O)N2OC [P2.40]	> 80	–	> 80	≥ 80
COCON1C(=O)C(c2cc(C)c(C)cc2Br)=C(O)C12CCN(OC)CC2 [P2.41]	> 80	–	> 80	–
CON1CCC2(CC1)C(O)=C(c1cc(C)c(C)cc1Cl)C(=O)N2OC [P2.43]	–	–	–	≥ 80

SMILES	mortality at 400 ppm [1] [%]	mortality at 400 ppm [2] [%]	mortality at 400 ppm [3] [%]	mortality at 200 ppm [4] [%]
CON1CCC2(CC1)C(O)=C(c1c(Cl)ccc(C)c1F)C(=O)N2OC1CCCO1 (centres unmarked) [P2.44]	> 80	–	–	–
CON1CCC2(CC1)C(O)=C(c1c(Cl)ccc(C)c1F)C(=O)N2OC1CCCO1 (centres unmarked) [P2.45]	–	> 80	–	–
COCON1C(=O)C(c2c(Cl)ccc(C)c2F)=C(O)C12CCN(OC)CC2 [P2.46]	> 80	–	–	–
CON1CCC2(CC1)C(O)=C(c1c(C)cc(C)c(C)c1C)C(=O)N2OC [P2.49]	> 80	–	–	–
COCON1C(=O)C(c2ccc(C)cc2C)=C(O)C12CCN(OC)CC2 [P2.52]	> 80	–	> 80	–
COCCON1C(=O)C(c2cc(C)c(C)cc2Br)=C(O)C12CCN(OC)CC2 [P2.53]	> 80	–	–	–
COCCON1C(=O)C(c2c(F)ccc(C)c2Cl)=C(O)C12CCN(OC)CC2 [P2.59]	> 80	–	–	–
CCOCON1C(=O)C(c2ccc(C)cc2C)=C(O)C12CCN(OC)CC2 [P2.61]	> 80	–	> 80	–
CON1CCC2(CC1)C(O)=C(c1c(C)cc(C)cc1C)C(=O)N2OC1COC1 [P2.66]	> 80	–	> 80	≥ 80
COCCON1C(=O)C(c2c(C)ccc(Cl)c2C)=C(O)C12CCN(OC)CC2 [P2.70]	> 80	–	> 80	≥ 80
COCON1C(=O)C(c2c(C)ccc(Cl)c2C)=C(O)C12CCN(OC)CC2 [P2.71]	> 80	–	–	≥ 80
COCON1C(=O)C(c2c(C)cc(C)cc2Br)=C(O)C12CCN(OC)CC2 [P2.72]	> 80	–	> 80	–
COCON1C(=O)C(c2cc(Br)c(C)cc2C)=C(O)C12CCN(OC)CC2 [P2.74]	–	–	> 80	–
CON1CCC2(CC1)C(O)=C(c1cc(Br)c(C)cc1C)C(=O)N2OC1CCCO1 (centres unmarked) [P2.76]	–	> 80	–	–
CON1CCC2(CC1)C(O)=C(c1c(C)cccc1C)C(=O)N2OC [P2.78]	> 80	–	> 80	≥ 80
COCCON1C(=O)C(c2c(C)cc(Br)cc2C)=C(O)C12CCN(OC)CC2 [P2.80]	> 80	–	> 80	–
CON1CCC2(CC1)C(O)=C(c1c(C)cc(C)cc1C)C(=O)N2OCC1CCSCC1 [P2.82]	–	–	–	≥ 80
CON1CCC2(CC1)C(O)=C(c1c(F)ccc(C)c1Cl)C(=O)N2OC1CCCO1 (centres unmarked) [P2.92]	> 80	–	> 80	–
CON1CCC2(CC1)C(O)=C(c1cc(C)c(Cl)cc1C)C(=O)N2OC1CCCO1 (centres unmarked) [P2.93]	–	–	> 80	–
CON1CCC(ON2C(=O)C(c3c(C)cc(C)cc3C)=C(O)C23CCN(OC)CC3)CC1 [P2.95]	> 80	–	–	≥ 80
CON1CCC2(CC1)C(O)=C(c1c(C)cc(C)cc1C)C(=O)N2OC1CCOC1 (centres unmarked) [P2.98]	> 80	–	> 80	–
CON1CCC2(CC1)C(O)=C(c1c(C)cc(C)cc1C)C(=O)N2OCCSC [P2.99]	> 80	–	–	≥ 80
